In patent EP0280051A1, “ACV synthetase” (QUEEN'S UNIVERSITY AT KINGSTON, priority 1987, dated 1988):

Molecular target: ACV-synthetase of C. acremonium C-10 (Hapsidospora chrysogena, UniProt P25464)
Assay: Cell-free ACV synthetase reaction (desalted extract, HPLC analysis after monobromobimane derivatization)
Format: biochemical
Conditions: for inhibition of ACV-synthetase: qualitative, concentration not clearly stated for the inhibitors
Procedure: a Typical reaction mixtures contained desalted extract (about 0.5 mg protein), 20 µg cycloheximide, 10 mM ATP, 10 mM MgC12, 5 mM dithiothreitol, 5 mM L-α-aminoadipic acid, I mM L -cysteine and 5 mM L -valine, all components dissolved in 100 µl of 100 mM MOPS/KOH at pH 7.5. Reactions were performed at 25°C in a water bath shaker, and terminated by addition of 25 µl of 20% trichloroacetic acid. Precipitated protein was removed by centrifugation, and the supernatant stored at -20°C prior to analysis. (MOPS = 3-[N-Morpholino] propanesulfonic acid, - a biological buffer available from Sigma Chemical Co.
Mycelia from Example 1 were washed twice with cold 50 mM Tris/HC1 buffer (pH 7.2) containing 100 mM KC1. After centrifugation, the pellet was resuspended in a volume of cold 100 mM MOPS/KOH buffer (pH 7.2) equal to twice the pellet volume; the buffer also contained 50 mM KCI, 30 mM 2-mercaptoethanol, 20 mM EDTA and 50% glycerol (v/v). The cells were disrupted in a French Press (Aminco) at 8000 psi and the debris removed by centrifugation (30,000×g, 15 min). The clear yellow supernatant fluid was stored at -20°C or immediately desalted by passage through a Sephadex G-15 column using an elution buffer of 100 mM MOPSiKOH (pH 7.2) containing 50 mM KCI and 20% glycerol (v/v). The resulting solution contained 10 to 20 mg protein per ml and was either used immediately for the cell-free reaction or frozen for future use.
Stored frozen extract (from Example 2) was thawed, desalted over Sephadex eG-15, and eluted with 100 mM MOPS/KOH at pH 7.5. Typical reaction mixtures contained desalted extract (about 0.5 mg protein), 20 µg cycloheximide, 10 mM ATP, 10 mM MgCI2, 5 mM dithiothreitol, 5 mM L-α-aminoadipic acid, 1 mM L -cysteine and 5 mM L-valine, all components dissolved in 100 µl of 100 mM MOPS/KOH at pH 7.5. Reactions were performed at 25°C in a water bath shaker, and terminated by addition of 25 µl of 20% trichloroacetic acid. Precipitated protein was removed by centrifugation, and the supernatant stored at -20°C prior to analysis.
Analyses were performed following derivatization with monobromobimane: to a 20 I sample were added successively 2 µl of 3M KOH, 4 µl of 0.03M dithiothreitol in 2M NH4HCO3 (pH 8.2), and 4 µl of 0.3M monobromobimane in acetonitrile. This mixture was stored for 15 min. in the dark, and then extracted with methylene chloride (4 × 200 I). Five µl of 1 M citric acid (pH 2.2) was added, and 25 µl of this final solution was injected into the HPLC apparatus.
The HPLC analysis employed two solutions, viz., A, 880 mg for pentanesulfonic acid, 2.5 ml of acetic acid in I liter H20 (pH 3.6); B, 880 mg of pentanesulfonic acid, 2.5 ml acetic acid, 50 ml water and 950 ml acetonitrile. […]

Chain of ACV-synthetase of C. acremonium C-10 (P25464 whole entry): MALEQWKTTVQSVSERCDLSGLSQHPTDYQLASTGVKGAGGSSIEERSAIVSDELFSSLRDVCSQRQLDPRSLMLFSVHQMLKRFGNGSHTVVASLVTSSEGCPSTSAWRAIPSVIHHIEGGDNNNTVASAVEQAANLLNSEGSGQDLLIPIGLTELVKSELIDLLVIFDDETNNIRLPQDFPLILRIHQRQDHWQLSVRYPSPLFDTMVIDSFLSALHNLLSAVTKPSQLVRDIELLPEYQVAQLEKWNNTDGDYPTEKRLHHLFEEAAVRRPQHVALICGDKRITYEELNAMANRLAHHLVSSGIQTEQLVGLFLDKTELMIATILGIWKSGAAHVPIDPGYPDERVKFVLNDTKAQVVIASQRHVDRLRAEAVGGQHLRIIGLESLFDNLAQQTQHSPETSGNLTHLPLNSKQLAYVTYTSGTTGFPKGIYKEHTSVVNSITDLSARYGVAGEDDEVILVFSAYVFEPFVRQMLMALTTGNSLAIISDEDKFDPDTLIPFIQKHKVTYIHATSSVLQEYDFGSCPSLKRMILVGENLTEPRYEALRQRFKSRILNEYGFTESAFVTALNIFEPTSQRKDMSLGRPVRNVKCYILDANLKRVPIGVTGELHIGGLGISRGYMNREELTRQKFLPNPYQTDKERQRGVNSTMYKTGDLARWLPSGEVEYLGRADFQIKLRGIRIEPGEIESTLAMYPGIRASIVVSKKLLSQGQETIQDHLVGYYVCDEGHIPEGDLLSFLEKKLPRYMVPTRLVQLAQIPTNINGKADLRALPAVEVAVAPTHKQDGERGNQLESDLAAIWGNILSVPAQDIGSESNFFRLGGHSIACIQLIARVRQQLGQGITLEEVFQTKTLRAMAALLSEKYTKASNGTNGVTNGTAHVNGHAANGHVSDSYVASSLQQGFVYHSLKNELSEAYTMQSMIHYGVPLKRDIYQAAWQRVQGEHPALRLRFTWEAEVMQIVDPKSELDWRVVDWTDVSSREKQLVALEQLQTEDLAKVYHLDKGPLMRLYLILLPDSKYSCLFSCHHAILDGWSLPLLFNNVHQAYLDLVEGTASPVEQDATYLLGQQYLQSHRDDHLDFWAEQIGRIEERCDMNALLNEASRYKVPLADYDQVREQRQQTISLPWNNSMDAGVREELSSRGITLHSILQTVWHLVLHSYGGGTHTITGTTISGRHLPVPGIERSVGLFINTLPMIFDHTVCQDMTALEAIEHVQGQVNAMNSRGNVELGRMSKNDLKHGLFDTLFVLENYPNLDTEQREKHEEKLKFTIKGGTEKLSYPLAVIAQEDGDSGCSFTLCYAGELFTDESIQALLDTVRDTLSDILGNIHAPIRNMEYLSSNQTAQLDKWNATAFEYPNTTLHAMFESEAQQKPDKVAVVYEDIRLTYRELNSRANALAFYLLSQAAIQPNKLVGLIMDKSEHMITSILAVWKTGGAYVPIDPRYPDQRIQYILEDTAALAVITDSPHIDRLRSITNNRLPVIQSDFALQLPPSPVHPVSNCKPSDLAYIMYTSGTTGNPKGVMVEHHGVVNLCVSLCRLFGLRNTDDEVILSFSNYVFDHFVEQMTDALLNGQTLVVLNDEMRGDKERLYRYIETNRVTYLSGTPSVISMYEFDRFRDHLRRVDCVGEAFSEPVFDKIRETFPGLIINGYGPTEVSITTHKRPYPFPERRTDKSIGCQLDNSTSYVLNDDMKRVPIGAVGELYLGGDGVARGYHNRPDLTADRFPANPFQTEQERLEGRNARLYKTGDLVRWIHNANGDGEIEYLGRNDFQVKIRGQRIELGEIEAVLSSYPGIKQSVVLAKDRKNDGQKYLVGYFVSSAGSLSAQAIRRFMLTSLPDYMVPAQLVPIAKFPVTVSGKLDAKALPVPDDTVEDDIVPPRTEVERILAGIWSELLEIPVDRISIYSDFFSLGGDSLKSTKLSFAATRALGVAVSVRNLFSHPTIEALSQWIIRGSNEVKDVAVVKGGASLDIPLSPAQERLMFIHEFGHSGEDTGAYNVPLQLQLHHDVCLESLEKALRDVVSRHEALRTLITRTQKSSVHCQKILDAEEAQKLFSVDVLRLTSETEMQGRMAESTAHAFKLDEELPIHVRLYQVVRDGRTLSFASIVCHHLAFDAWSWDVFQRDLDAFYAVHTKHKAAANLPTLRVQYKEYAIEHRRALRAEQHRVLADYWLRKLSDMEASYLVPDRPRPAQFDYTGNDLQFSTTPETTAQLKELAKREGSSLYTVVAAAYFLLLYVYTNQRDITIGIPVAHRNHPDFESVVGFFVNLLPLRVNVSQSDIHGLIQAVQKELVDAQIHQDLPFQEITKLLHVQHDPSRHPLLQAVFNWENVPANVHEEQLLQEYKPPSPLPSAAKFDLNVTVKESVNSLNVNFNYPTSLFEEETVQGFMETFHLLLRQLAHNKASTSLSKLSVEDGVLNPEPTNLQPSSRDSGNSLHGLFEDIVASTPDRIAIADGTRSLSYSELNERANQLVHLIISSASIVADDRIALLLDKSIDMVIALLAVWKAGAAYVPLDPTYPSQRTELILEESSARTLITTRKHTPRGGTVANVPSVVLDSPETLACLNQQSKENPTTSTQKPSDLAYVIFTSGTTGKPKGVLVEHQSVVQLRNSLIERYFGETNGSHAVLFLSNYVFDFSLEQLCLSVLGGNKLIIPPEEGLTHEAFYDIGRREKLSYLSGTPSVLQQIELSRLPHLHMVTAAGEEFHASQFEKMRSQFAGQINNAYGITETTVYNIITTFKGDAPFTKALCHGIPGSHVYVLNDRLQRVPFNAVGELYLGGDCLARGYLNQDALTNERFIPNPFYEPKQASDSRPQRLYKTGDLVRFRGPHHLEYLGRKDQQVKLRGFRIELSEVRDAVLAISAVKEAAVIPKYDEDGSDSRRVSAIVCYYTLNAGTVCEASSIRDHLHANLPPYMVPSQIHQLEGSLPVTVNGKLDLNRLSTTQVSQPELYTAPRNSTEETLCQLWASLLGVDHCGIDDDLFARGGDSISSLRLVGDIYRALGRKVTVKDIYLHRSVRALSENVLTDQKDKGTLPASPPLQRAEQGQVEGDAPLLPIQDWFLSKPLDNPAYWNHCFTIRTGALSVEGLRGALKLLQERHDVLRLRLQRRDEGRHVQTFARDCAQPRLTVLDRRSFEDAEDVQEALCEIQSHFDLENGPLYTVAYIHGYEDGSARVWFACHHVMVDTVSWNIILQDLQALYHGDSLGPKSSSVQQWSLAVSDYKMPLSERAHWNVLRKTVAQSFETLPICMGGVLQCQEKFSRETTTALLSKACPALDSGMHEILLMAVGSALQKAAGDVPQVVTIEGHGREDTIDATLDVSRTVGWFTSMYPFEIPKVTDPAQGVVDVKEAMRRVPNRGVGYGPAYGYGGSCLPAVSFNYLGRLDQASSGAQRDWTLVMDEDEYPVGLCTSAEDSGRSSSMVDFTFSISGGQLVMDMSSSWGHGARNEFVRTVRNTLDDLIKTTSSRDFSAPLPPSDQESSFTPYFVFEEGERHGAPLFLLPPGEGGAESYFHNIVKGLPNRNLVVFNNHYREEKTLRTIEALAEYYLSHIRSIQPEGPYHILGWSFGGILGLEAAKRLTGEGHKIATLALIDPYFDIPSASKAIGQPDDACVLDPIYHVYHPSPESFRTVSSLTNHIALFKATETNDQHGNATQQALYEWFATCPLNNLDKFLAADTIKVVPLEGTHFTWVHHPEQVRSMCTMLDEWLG

Fructose-1.6-diphosphate
inhibition of ACV-synthetase: inhibit

glucose-1-phosphate
inhibition of ACV-synthetase: inhibit

NCC(=O)O [glycine]
effect on LLD-ACV synthesis (added as a fourth amino acid, concentration not given): unaffected

orthophosphate
inhibition of ACV-synthetase: inhibit
